Assay results as given in ChEMBL document CHEMBL1146175, “Natural inhibitors targeting osteoclast-mediated bone resorption” (Bioorg Med Chem Lett, 2006).
pIC50: −log10 of the molar value.

How the values were obtained:
[1] = biological target: T1, Cathepsin K (Homo sapiens, UniProt P43235); assay: Inhibition of human Cathepsin K
T1 sequence (P43235 whole entry): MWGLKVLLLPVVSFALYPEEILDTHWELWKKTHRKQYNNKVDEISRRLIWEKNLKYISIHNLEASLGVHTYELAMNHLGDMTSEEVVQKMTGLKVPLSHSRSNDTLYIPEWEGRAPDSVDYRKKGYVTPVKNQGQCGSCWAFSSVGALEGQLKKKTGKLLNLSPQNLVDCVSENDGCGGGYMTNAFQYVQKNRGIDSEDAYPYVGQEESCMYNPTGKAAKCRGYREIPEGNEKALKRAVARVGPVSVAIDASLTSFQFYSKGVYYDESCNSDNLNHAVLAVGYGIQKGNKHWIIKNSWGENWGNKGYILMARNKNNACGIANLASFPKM

[2] = biological target: Integrin alpha-V/beta-3 (Homo sapiens, UniProt P05106+P06756); assay: Inhibition of human alpha-v-beta-3 integrin receptor by ELISA; assay type: protein-complex assay
Integrin alpha-V/beta-3, sequence (P05106 27-788 limits assumed): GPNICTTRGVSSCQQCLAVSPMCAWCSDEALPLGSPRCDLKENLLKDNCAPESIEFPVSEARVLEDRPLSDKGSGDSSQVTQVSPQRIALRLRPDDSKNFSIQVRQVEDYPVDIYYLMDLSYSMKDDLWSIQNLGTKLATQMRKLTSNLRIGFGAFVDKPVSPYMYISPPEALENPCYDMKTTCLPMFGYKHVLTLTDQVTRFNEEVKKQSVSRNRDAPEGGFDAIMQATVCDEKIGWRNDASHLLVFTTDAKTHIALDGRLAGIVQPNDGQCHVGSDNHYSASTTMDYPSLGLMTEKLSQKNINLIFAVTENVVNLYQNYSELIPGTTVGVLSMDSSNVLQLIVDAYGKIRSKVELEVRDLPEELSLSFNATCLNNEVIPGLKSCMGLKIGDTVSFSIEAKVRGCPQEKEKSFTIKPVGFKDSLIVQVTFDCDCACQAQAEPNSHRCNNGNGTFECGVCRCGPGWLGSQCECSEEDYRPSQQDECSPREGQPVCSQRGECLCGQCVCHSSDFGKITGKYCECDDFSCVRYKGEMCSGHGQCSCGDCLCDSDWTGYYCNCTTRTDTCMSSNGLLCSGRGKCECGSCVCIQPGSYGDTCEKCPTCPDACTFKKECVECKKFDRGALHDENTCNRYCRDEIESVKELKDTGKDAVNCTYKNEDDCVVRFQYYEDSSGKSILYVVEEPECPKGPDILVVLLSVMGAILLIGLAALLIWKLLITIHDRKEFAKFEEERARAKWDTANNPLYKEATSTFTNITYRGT
Integrin alpha-V/beta-3, sequence (P06756 31-889 limits assumed): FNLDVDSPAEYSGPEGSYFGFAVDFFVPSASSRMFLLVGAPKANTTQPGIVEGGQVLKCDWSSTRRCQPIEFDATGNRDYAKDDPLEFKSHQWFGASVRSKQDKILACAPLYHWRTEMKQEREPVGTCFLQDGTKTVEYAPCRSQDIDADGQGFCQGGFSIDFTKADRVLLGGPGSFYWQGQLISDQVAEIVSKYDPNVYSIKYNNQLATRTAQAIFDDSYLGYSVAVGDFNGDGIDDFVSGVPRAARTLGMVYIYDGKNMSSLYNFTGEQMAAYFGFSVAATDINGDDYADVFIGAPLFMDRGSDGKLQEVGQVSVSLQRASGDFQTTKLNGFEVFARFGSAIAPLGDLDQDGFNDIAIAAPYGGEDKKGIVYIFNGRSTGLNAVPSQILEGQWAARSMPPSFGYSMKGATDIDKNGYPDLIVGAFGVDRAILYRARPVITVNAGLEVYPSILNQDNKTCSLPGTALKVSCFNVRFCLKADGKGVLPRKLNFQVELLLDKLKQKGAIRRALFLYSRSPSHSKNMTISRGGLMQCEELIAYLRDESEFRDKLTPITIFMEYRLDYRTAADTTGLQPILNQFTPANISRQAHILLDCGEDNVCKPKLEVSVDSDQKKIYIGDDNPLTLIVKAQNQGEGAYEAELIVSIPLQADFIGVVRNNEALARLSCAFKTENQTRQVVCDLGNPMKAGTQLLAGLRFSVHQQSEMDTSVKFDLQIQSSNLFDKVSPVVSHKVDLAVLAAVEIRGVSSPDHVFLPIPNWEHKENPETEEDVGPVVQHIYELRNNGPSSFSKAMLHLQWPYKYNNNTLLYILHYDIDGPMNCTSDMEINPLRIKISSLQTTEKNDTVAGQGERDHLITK
Integrin alpha-V/beta-3, sequence (P06756 891-1048 limits assumed): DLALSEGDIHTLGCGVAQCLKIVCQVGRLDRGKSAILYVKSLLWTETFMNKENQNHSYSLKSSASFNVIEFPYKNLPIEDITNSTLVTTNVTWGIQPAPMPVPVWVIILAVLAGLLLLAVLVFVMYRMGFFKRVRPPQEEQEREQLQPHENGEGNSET

[3] = biological target: Matrix metalloproteinase-9 (Homo sapiens, UniProt P14780); assay: Inhibition of human MMP9 by quenched fluorescense assay
Matrix metalloproteinase-9, sequence (P14780 whole entry): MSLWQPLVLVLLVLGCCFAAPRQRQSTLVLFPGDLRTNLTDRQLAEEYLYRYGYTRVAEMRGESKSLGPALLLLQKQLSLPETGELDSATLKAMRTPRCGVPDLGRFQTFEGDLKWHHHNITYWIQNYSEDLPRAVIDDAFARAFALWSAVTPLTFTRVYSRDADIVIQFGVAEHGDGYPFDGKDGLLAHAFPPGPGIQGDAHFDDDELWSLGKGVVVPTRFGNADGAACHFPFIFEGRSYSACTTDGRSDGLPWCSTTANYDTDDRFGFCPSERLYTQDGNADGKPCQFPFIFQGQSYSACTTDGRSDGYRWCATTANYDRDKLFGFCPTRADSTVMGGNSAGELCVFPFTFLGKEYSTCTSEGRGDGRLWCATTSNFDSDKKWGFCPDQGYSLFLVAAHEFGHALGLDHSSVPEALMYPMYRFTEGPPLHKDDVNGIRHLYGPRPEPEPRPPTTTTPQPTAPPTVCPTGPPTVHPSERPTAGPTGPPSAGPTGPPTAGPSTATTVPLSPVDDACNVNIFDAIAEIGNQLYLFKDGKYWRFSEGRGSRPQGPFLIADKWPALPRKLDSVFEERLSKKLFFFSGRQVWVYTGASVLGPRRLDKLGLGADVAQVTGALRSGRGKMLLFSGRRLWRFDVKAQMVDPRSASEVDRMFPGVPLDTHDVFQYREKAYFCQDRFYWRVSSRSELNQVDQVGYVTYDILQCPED

Row | Structure (SMILES) | pIC50 [1] | further results
1 | COc1cc2c([nH]c3c4c(c(C)cc32)OC(C)(C)C=C4)c(-c2c(O)c(OC)cc3c2[nH]c2c4c(c(C)cc23)OC(C)(C)C=C4)c1O | 5.72 | 
2 | O=c1cc(-c2ccc(O)c(-c3c(O)cc(O)c4c(=O)cc(-c5ccc(O)cc5)oc34)c2)oc2cc(O)cc(O)c12 [AMENTOFLAVONE] | 5.73 | 
3 | O=C(O)/C=C/c1ccccc1O[C@@H]1O[C@H](CO)[C@@H](O)[C@H](O)[C@H]1O [MELILOTOSIDE] |  | pIC50 [2]: 4.74
4 | C[C@@H]1C[C@@H](O)[C@@]2(O)[C@@]13C[C@@H](OC(=O)[C@@H]3O)[C@](C)(O)[C@@]21COC1=O [ANIASATIN] |  | pIC50 [3]: 4.75
5 | COc1ccc(-c2cc(=O)c3c(O)cc(OC)c(-c4cc(-c5cc(=O)c6c(O)cc(O)cc6o5)ccc4O)c3o2)cc1 [7'',4'''-dimethylamentoflavone] | 5.80 | 
6 | O=C1C[C@@H](c2ccc(O)c(-c3c(O)cc(O)c4c(=O)cc(-c5ccc(O)cc5)oc34)c2)Oc2cc(O)cc(O)c21 | 5.85 | 
7 | O=C(NO)[C@@H](Cc1ccccc1)NS(=O)(=O)c1ccc(-c2ccccc2)cc1 |  | pIC50 [3]: 8.15
8 | COc1ccc(-c2cc(=O)c3c(O)cc(O)c(-c4cc(-c5cc(=O)c6c(O)cc(O)cc6o5)ccc4O)c3o2)cc1 [PODOCARPUSFLAVONE A] | 5.60 | 
9 | O=c1c2ccccc2nc2n1CCc1c-2[nH]c2ccccc12 [RUTAECARPINE] |  | pIC50 [3]: 4.56
10 | O=c1cc(-c2ccc(Oc3c(O)cc4oc(-c5ccc(O)cc5)cc(=O)c4c3O)cc2)oc2cc(O)cc(O)c12 [HINOKIFLAVONE] | 5.81 | 
11 | CC(=O)N[C@@H](CC(C)C)C(=O)N[C@@H](CC(C)C)C(=O)N[C@H](C=O)CCCNC(=N)N [LEUPEPTIN] | 7.37 | 
12 | COc1ccc(-c2cc(=O)c3c(O)cc(O)cc3o2)cc1-c1c(O)cc(O)c2c(=O)cc(-c3ccc(O)cc3)oc12 [BILOBETIN] | 5.82 | 
